Here are results for 29 molecules from patent US5885987A, “Phenylene derivatives” (Kowa Co., Ltd., priority 1996, dated 1999).

SMILES strings stand for the structures. Read-outs that look alike come from different tables or passages of the source.

In assay [1] the target is T1, H1 receptor (Cavia porcellus, UniProt P31389).
T1 construct: guinea pig cerebromembranous protein; from tissue; host or cells: guinea pig cerebral (brain) membranes
Description: H1 receptor binding inhibition test ([^3 H]mepyramin, guinea pig cerebromembranous protein). The conditions noted are these: for inhibition at 100 µM: a: 100 μM, read-out: H1 receptor (%), inhibition rate; for Kd: read-out: H1 receptor, dissociation constant KD. How it is done: 1) H1 Receptor Binding Inhibition Test
An ice-cooled phosphate buffer was added to terminate the reaction, followed by immediate filtration through a Wattman CF/C filter. The filter was washed twice with 20 ml aliquots of the ice-cooled buffer. The radioactivity of the residue was measured by a liquid scintillation counter. From a measurement value obtained without the addition of the test compound and measurements values obtained upon addition of the test compound at various concentrations, the dose-response of the inhibitory action of the test compound was measured and the 50% inhibitory concentration (IC50) was determined. Using the Cheng-Prusoff formula, a dissociation constant was calculated from the IC50. In a binding assay, 10^-4 M R(-)dimethindene was used for the measurement of a nonspecific binding.

Assay [2] addresses T2, LTD4 receptor (Cavia porcellus, UniProt Q2NNR5).
T2 construct: guinea pig pulmomembranous protein; from tissue; host or cells: guinea pig lung membranes
T2 sequence (Q2NNR5 1-340): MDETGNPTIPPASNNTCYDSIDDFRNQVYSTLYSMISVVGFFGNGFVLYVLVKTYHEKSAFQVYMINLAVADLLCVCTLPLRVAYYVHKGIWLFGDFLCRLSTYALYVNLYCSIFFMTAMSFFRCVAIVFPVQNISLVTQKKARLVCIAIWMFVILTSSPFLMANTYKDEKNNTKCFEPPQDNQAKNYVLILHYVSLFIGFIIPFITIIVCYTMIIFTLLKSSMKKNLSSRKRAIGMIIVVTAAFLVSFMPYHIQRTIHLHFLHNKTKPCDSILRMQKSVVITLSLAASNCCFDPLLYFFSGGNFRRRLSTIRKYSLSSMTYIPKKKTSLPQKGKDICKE
Description: LTD4 receptor binding inhibition test ([^3 H]leukotriene D4, guinea pig pulmomembranous protein). The note with it: for Kd: read-out: LTD4 receptor, dissociation constant KD; for inhibition at 10 µM: b: 10 μM; for inhibition at 10 µM / inhibition at 100 µM: read-out: LTD4 receptor (%), inhibition rate; for inhibition at 100 µM: a: 100 μM. How it is done: 2) LTD4 Receptor Binding Inhibition Test
An ice-cooled tris hydrochloride/sodium chloride buffer (10 mM/100 mM, pH 7.5) was added to terminate the reaction, followed by immediate filtration through a Wattman CF/C filter. The filter was washed twice with 20 ml aliguots of the ice-cooled buffer. The radioactivity of the residue was measured by a liquid scintillation counter. […] In a binding assay, 2 μM leukotriene D4 was used for the measurement of a nonspecific binding.

T1 sequence (P31389 whole entry): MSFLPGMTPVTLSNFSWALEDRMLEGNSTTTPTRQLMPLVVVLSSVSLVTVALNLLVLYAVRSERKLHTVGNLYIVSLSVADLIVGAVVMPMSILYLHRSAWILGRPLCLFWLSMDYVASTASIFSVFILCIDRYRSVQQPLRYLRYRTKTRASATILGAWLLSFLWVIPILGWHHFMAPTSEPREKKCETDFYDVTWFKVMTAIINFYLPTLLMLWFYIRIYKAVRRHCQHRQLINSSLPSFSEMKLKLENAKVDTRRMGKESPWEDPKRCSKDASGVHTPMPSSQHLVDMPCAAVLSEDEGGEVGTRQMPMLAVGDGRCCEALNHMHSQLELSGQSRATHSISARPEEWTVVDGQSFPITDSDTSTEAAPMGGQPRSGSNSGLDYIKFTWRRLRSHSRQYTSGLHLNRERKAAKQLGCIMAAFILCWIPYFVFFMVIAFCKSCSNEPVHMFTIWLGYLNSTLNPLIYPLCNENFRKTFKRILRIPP

Regarding `Cc1ccc(OCc2cccc(OCc3nc4ccccc4n3C)c2)c2c1NC(=O)C2(C)C` [Example 37, 4-[3-(N-methylbenzimidazol-2-yl-methoxy)benzyloxy)-3,3,7-trimethyl-2,3-hydro-1H-indol-2-one], in assay [1], the inhibition at 100 µM came out at 28%. Further, the equilibrium dissociation constant (Kd) in assay [2] was found to be 204 nM.
The like results for `Cn1c(COc2ccc(COc3ccc4c(c3)SCC(=O)N4)cc2)nc2ccccc21` [Example 38, 7-(4-(N-methylbenzimidazol-2-yl-methoxy)benzyloxy]-3,4-dihydro-2H-1,4-benzothiazin-3-one] were, in that order, 47% and 303 nM.
The corresponding values for `O=C1CSc2cc(OCc3cccc(OCc4nc5ccccc5s4)c3)ccc2N1` [Example 40, 7-[3-(2-benzothiazolylmethoxy)benzyloxy)-3,4-dihydro-2H-1,4-benzothiazin-3-one] are 43% and 1390 nM.
On to `O=C1CCc2ccc(OCc3cccc(OCc4nc5ccccc5s4)c3)cc2N1` [Example 41, 7-[3-(2-benzothiazolylmethoxy)benzyloxy]-1,2,3,4-tetrahydroquinolin-2-one], for which, in assay [1], the Kd worked out at 128000 nM. In addition, the inhibition at 10 µM in assay [2] was 34%.
The corresponding values for `O=C1CCc2ccc(OCc3ccc(OCc4nc5ccccc5s4)cc3)cc2N1` [Example 42, 7-(4-(2-benzothiazolylmethoxy)benzyloxy]-1,2,3,4-tetrahydroquinolin-2-one] are 83600 nM and 17%.
Take `CCOCCn1c(COc2cccc(COc3ccc(C)c4c3C(C)(C)C(=O)N4)c2)nc2ccccc21` [Example 43, 4-(3-(N-ethoxylethylbenzimidazol-2-yl-methoxy)benzyloxy)-3,3,7-trimethyl-2,3-dihydro-1H-indol-2-one]: the values for the Kd in assay [1] and in assay [2] were 6060 nM and 5510 nM, respectively.
The corresponding values for `CCOCCn1c(COc2cccc(COc3ccc4c(c3)SCC(=O)N4)c2)nc2ccccc21` [Example 44, 7-[3-(N-ethoxylethylbenzimidazol-2-yl-methoxy)benzyloxy]-3,4-dihydro-2H-1,4-benzothiazin-3-one] are 8670 nM and 6300 nM.
With `CCOCCn1c(COc2ccc(COc3ccc(C)c4c3C(C)(C)C(=O)N4)cc2)nc2ccccc21` [Example 45, 4-[4-(N-ethoxylethylbenzimidazol-2-yl-methoxy)benzyloxy]-3,3,7-trimethyl-2,3-dihydro-1H-indol-2-one], the inhibition at 100 µM in assay [1] worked out at 40%. The inhibition at 10 µM in assay [2] turned out to be 32%.
As to `CCOCCn1c(COc2ccc(COc3ccc4c(c3)SCC(=O)N4)cc2)nc2ccccc21` [Example 46, 7-[(N-ethoxyethylbenzimidazol-2-yl-methoxy)benzyloxy]-3,4-dihydro-2H-1,4-benzothiazin-3-one], the Kd in assay [1] (0.5 nM [^3 H]mepyramin, pH 7.5, 37° C., 30 minutes, calculated from IC50 with Cheng-Prusoff formula) is 5950 nM; in assay [2] (0.2 nM [^3 H]leukotriene D4, pH 7.5, 22° C., 30 minutes, calculated from IC50), 6400 nM.
On to `Cc1ccc(OC(=O)c2cccc(OCc3ccc4ccccc4n3)c2)c2cc(C#N)c(=O)[nH]c12` [Example 53, 3-cyano-8-methyl-5-[3-(2-quinolinylmethoxy)benzoyloxy]-1,2-dihydroquinolin-2-one], for which, in assay [1], the inhibition at 100 µM turned out to be 38%. The Kd in assay [2] amounted to 16 nM.
The corresponding values for `Cc1ccc(OC(=O)c2cccc(OCc3ccc4ccccc4n3)c2)c2c1NC(=O)CC2` [Example 54, 8-Methyl-5-[3-(2-quinolinylmethoxy)benzoyloxy]-1,2,3,4-tetrahydroquinolin-2-one] are 41% and 129 nM.
The corresponding values for `O=C1CCc2cc(OC(=O)c3cccc(OCc4ccc5ccccc5n4)c3)ccc2N1` [Example 55, 6-[3-(2-Quinolinylmethoxy)benzoyloxy]-1,2,3,4-tetrahydroquinolin-2-one] are 43% and 348 nM.
Take `O=C1CCc2ccc(OC(=O)c3cccc(OCc4ccc5ccccc5n4)c3)cc2N1` [Example 56, 7-[3-(2-Quinolinylmethoxy)benzoyloxy]-1,2,3,4-tetrahydroquinolin-2-one]: the Kd in assay [1] is 93000 nM. Moreover, the inhibition at 100 µM in assay [2] came to 12%.
Regarding `O=C1CCCc2cc(OC(=O)c3cccc(OCc4ccc5ccccc5n4)c3)ccc2N1` [Example 57], the Kd in assay [1] came out at 57900 nM. In addition, the Ki in assay [2] (read-out: LTD4 receptor, dissociation constant KD (converted)) was 851 nM.
`CC1(C)C(=O)Nc2ccc(OC(=O)c3cccc(OCc4ccc5ccccc5n4)c3)cc21` [Example 59, 3,3-Dimethyl-5-[3-(2-quinolinylmethoxy)benzoyloxy]-2,3-dihydro-1H-indol-2-one]: the results for the inhibition at 100 µM in assay [1] and in assay [2] were 37% and 53%, respectively.
As for `CC1(C)C(=O)Nc2cc(OC(=O)c3cccc(OCc4ccc5ccccc5n4)c3)ccc21` [Example 60, 3,3-Dimethyl-6-[3-(2-quinolinylmethoxy)benzoyloxy]-2,3-dihydro-1H-indol-2-one], the inhibition at 100 µM in assay [1] is 38%. In assay [2], the dissociation constant (Kd) turned out to be 223 nM.
As to `CC1(C)C(=O)Nc2c(OC(=O)c3cccc(OCc4ccc5ccccc5n4)c3)cccc21` [Example 61, 3,3-Dimethyl-7-[3-(2-quinolinylmethoxy)benzoyloxyl]2,3-dihydro-1H-indol-2-one], in assay [1], the inhibition at 100 µM stood at 28%. The inhibition at 10 µM in assay [2] was determined as 27%.
As to `Cc1ccc(OC(=O)c2ccc(OCc3ccc4ccccc4n3)cc2)c2c1NC(=O)CC2` [Example 63, 8-Methyl-5-(4-(2-quinolinylmethoxy)benzoyloxy]-1,2,3,4-tetrahydroquinolin-2-one], in assay [1], the inhibition at 100 µM was found to be 40%. Besides, in assay [2], the Kd was 30.6 nM.
As to `O=C1CCc2cc(OC(=O)c3ccc(OCc4ccc5ccccc5n4)cc3)ccc2N1` [Example 64, 6-[4-(2-Quinolinylmethoxy)benzoyloxy]-1,2,3,4-tetrahydroquinolin-2-one], the inhibition at 100 µM in assay [1] was found to be 40%; in assay [2], 12%.
The corresponding values for `O=C1CCc2ccc(OC(=O)c3ccc(OCc4ccc5ccccc5n4)cc3)cc2N1` [Example 65, 7-(4-(2-Quinolinylmethoxy]benzoyloxy]-1,2,3,4-tetrahydroquinolin-2-one] are 43% and 13%.
With `CC1(C)C(=O)Nc2ccc(OC(=O)c3ccc(OCc4ccc5ccccc5n4)cc3)cc21` [Example 67, 3,3-Dimethyl-5-[4-(2-quinolinylmethoxy)benzoyloxy]-2,3-dihydro-1H-indol-2-one], the results for the inhibition at 100 µM in assay [1] and in assay [2] were 49% and 52%, respectively.
`CC1(C)C(=O)Nc2cc(OC(=O)c3ccc(OCc4ccc5ccccc5n4)cc3)ccc21` [Example 68, 3,3-Dimethyl-6-(4-(2-quinolinylmethoxy)benzoyloxy]-2,3-dihydro-1H-indol-2-one]: the inhibition at 100 µM in assay [1] is 28%. Moreover, the Kd in assay [2] worked out at 428 nM.
The corresponding values for `CC1(C)C(=O)Nc2c(OC(=O)c3ccc(OCc4ccc5ccccc5n4)cc3)cccc21` [Example 69, 3,3-Dimethyl-7-(4-(2-quinolinylmethoxy)benzoyloxyy]-2,3-dihydro-1H-indol-2-one] are 33% and 331 nM.
Consider `O=C1CSc2c(cccc2NC(=O)c2cccc(OCc3ccc4ccccc4n3)c2)N1` [Example 70, 8-(3-(2-Quinolinylmethoxy)benzoylamino]-3,4-dihydro-2H-1,4-benzothiazin-3-one], for which the inhibition at 100 µM in assay [1] is 37%. Moreover, the dissociation constant Kd in assay [2] was 208 nM.
Consider `O=C1CSc2c(cccc2NC(=O)c2ccc(OCc3ccc4ccccc4n3)cc2)N1` [Example 71, 8-[4-(2-Quinolinylmethoxy)benzoylamino]-3,4-dihydro-2H-1,4-benzothiazin-3-one], for which the inhibition at 100 µM stood at 28% in assay [1] and 0% in assay [2].
Regarding `O=C1CS(=O)(=O)c2cc(OCc3cccc(OCc4ccc5ccc(Cl)cc5n4)c3)ccc2N1` [Example 75], the inhibition at 100 µM in assay [1] came out at 36%. Besides, the “LTD4 receptor (%), inhibition rate” value in assay [2] (concentration not given) amounted to 0%.
`O=C1CCS(=O)(=O)c2cc(OCc3cccc(OCc4ccc5ccccc5n4)c3)ccc2N1` [Example 76]: in assay [1], the Kd came out at 122000 nM. Besides, in assay [2], the inhibition at 100 µM amounted to 0%.
`Cn1c(COc2cccc(COc3ccc4c(c3)S(=O)(=O)CC(=O)N4)c2)nc2ccccc21` [Example 79, 7-[3-(N-Methylbenzimidazol-2-yl-methoxy)benzyloxy]-3,4-dihydro-2H-1,4-benzothiazin-3-one 1,1-dioxide]: in assay [1], the inhibition at 100 µM was determined as 43%. Further, the inhibition at 10 µM in assay [2] was found to be 42%.
The like results for `O=C1CS(=O)(=O)c2cc(NC(=O)c3cccc(OCc4ccc5ccccc5n4)c3)ccc2N1` [Example 80] were, in that order, 36% and 27%.
